# Experimental data taken from PubChem BioAssay (NCI).
#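 Results reflect a 48-hour exposure of cells in 96-well plates to compound at five concentrations. GI50 = concentration required for 50% inhibition of growth. TGI denotes the concentration required for complete inhibition of growth.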
# Tests used:
# Assay in all cases: DTP human tumour cell line panel, 48 h
# HL-60(TB) leukemia = system: HL-60(TB) leukemia
# A498 renal = system: A498 renal
# SK-OV-3 ovarian = system: SK-OV-3 ovarian
# OVCAR-8 ovarian = system: OVCAR-8 ovarian
# OVCAR-5 ovarian = system: OVCAR-5 ovarian
# BT-549 breast = system: BT-549 breast
# HOP-92 NSCLC = system: HOP-92 NSCLC
# HCC-2998 colon = system: HCC-2998 colon
# UO-31 renal = system: UO-31 renal
# SF-268 CNS = system: SF-268 CNS
# SN12C renal = system: SN12C renal
# MDA-MB-435 = system: MDA-MB-435
# CAKI-1 renal = system: CAKI-1 renal
# OVCAR-3 ovarian = system: OVCAR-3 ovarian
# T-47D breast = system: T-47D breast
# TK-10 renal = system: TK-10 renal
# HCT-116 colon = system: HCT-116 colon
# NCI/ADR-RES ovarian = system: NCI/ADR-RES ovarian
# MALME-3M melanoma = system: MALME-3M melanoma
# DU-145 prostate = system: DU-145 prostate
# SF-295 CNS = system: SF-295 CNS
# SF-539 CNS = system: SF-539 CNS
# NCI-H23 lung = system: NCI-H23 lung
# MCF7 breast = system: MCF7 breast
# ACHN renal = system: ACHN renal
# 786-0 renal = system: 786-0 renal
# RXF 393 renal = system: RXF 393 renal
# PC-3 prostate = system: PC-3 prostate
# NCI-H460 lung = system: NCI-H460 lung
# HS 578T breast = system: HS 578T breast
# HOP-62 NSCLC = system: HOP-62 NSCLC
# COLO 205 colon = system: COLO 205 colon
# SW-620 colon = system: SW-620 colon
# EKVX NSCLC = system: EKVX NSCLC
# SNB-19 CNS = system: SNB-19 CNS
# M14 melanoma = system: M14 melanoma
# KM12 colon = system: KM12 colon
# CCRF-CEM leukemia = system: CCRF-CEM leukemia
# UACC-257 melanoma = system: UACC-257 melanoma
# SK-MEL-2 melanoma = system: SK-MEL-2 melanoma
# HT29 colon = system: HT29 colon
# MDA-MB-231 breast = system: MDA-MB-231 breast
# NCI-H522 lung = system: NCI-H522 lung
# NCI-H226 lung = system: NCI-H226 lung
# SK-MEL-5 melanoma = system: SK-MEL-5 melanoma
# RPMI-8226 leukemia = system: RPMI-8226 leukemia
# UACC-62 melanoma = system: UACC-62 melanoma
# A549 NSCLC = system: A549 NSCLC
# OVCAR-4 ovarian = system: OVCAR-4 ovarian
# K-562 leukemia = system: K-562 leukemia
# LOX IMVI melanoma = system: LOX IMVI melanoma
# HCT-15 colon = system: HCT-15 colon
# SK-MEL-28 melanoma = system: SK-MEL-28 melanoma
# U251 CNS = system: U251 CNS
# IGROV1 ovarian = system: IGROV1 ovarian
# SNB-75 CNS = system: SNB-75 CNS
# MOLT-4 leukemia = system: MOLT-4 leukemia
compound,measurement,setting,value
CC(CO)(CO)NCCCCn1ccc2c1C(=O)c1c(c(O)c3ccccc3c1O)C2=O,GI50,HL-60(TB) leukemia,2.37 µM
same,TGI,HL-60(TB) leukemia,> 100 µM
same,GI50,A498 renal,22.3 µM
same,TGI,A498 renal,51 µM
same,GI50,SK-OV-3 ovarian,27.4 µM
same,TGI,SK-OV-3 ovarian,98.7 µM
same,GI50,OVCAR-8 ovarian,3.48 µM
same,TGI,OVCAR-8 ovarian,12 µM
same,GI50,OVCAR-5 ovarian,16 µM
same,TGI,OVCAR-5 ovarian,29.5 µM
same,GI50,BT-549 breast,19.9 µM
same,TGI,BT-549 breast,51.2 µM
same,GI50,HOP-92 NSCLC,5.73 µM
same,TGI,HOP-92 NSCLC,22.7 µM
same,GI50,HCC-2998 colon,6.2 µM
same,TGI,HCC-2998 colon,20.9 µM
same,GI50,UO-31 renal,4.18 µM
same,TGI,UO-31 renal,> 100 µM
same,GI50,SF-268 CNS,14.4 µM
same,TGI,SF-268 CNS,40.9 µM
same,GI50,SN12C renal,11.2 µM
same,TGI,SN12C renal,24.2 µM
same,GI50,MDA-MB-435,1.76 µM
same,TGI,MDA-MB-435,3.56 µM
same,GI50,CAKI-1 renal,13.6 µM
same,TGI,CAKI-1 renal,30.4 µM
same,GI50,OVCAR-3 ovarian,5.78 µM
same,TGI,OVCAR-3 ovarian,29.1 µM
same,GI50,T-47D breast,21.1 µM
same,TGI,T-47D breast,65.8 µM
same,GI50,TK-10 renal,1.51 µM
same,TGI,TK-10 renal,4.57 µM
same,GI50,HCT-116 colon,1.58 µM
same,TGI,HCT-116 colon,2.92 µM
same,GI50,NCI/ADR-RES ovarian,2.36 µM
same,TGI,NCI/ADR-RES ovarian,6.02 µM
same,GI50,MALME-3M melanoma,1.69 µM
same,TGI,MALME-3M melanoma,7.38 µM
same,GI50,DU-145 prostate,16.1 µM
same,TGI,DU-145 prostate,30.5 µM
same,GI50,SF-295 CNS,11.2 µM
same,TGI,SF-295 CNS,26.6 µM
same,GI50,SF-539 CNS,15.3 µM
same,TGI,SF-539 CNS,47.1 µM
same,GI50,NCI-H23 lung,15.8 µM
same,TGI,NCI-H23 lung,36.4 µM
same,GI50,MCF7 breast,17.1 µM
same,TGI,MCF7 breast,53.4 µM
same,GI50,ACHN renal,6.27 µM
same,TGI,ACHN renal,> 100 µM
same,GI50,786-0 renal,10.9 µM
same,TGI,786-0 renal,26.9 µM
same,GI50,RXF 393 renal,4.49 µM
same,TGI,RXF 393 renal,31.7 µM
same,GI50,PC-3 prostate,1.52 µM
same,TGI,PC-3 prostate,3.11 µM
same,GI50,NCI-H460 lung,13.7 µM
same,TGI,NCI-H460 lung,42.9 µM
same,GI50,HS 578T breast,30.3 µM
same,TGI,HS 578T breast,73.4 µM
same,GI50,HOP-62 NSCLC,14 µM
same,TGI,HOP-62 NSCLC,28.9 µM
same,GI50,COLO 205 colon,3.01 µM
same,TGI,COLO 205 colon,31.3 µM
same,GI50,SW-620 colon,5.47 µM
same,TGI,SW-620 colon,29.2 µM
same,GI50,EKVX NSCLC,17.8 µM
same,TGI,EKVX NSCLC,44.5 µM
same,GI50,SNB-19 CNS,18.4 µM
same,TGI,SNB-19 CNS,42.2 µM
same,GI50,M14 melanoma,1.73 µM
same,TGI,M14 melanoma,3.41 µM
same,GI50,KM12 colon,1.4 µM
same,TGI,KM12 colon,2.7 µM
CCSc1nc(SCC)c2cn[nH]c2n1,GI50,HL-60(TB) leukemia,72.4 µM
same,TGI,HL-60(TB) leukemia,> 100 µM
same,GI50,CCRF-CEM leukemia,41.5 µM
same,TGI,CCRF-CEM leukemia,> 100 µM
same,GI50,UACC-257 melanoma,89 µM
same,TGI,UACC-257 melanoma,> 100 µM
same,GI50,A498 renal,2.47 µM
same,TGI,A498 renal,13.1 µM
same,GI50,SK-OV-3 ovarian,39 µM
same,TGI,SK-OV-3 ovarian,> 100 µM
same,GI50,OVCAR-8 ovarian,62.7 µM
same,TGI,OVCAR-8 ovarian,> 100 µM
same,GI50,SK-MEL-2 melanoma,61.5 µM
same,TGI,SK-MEL-2 melanoma,> 100 µM
same,GI50,OVCAR-5 ovarian,69.1 µM
same,TGI,OVCAR-5 ovarian,> 100 µM
same,GI50,BT-549 breast,37.5 µM
same,TGI,BT-549 breast,> 100 µM
same,GI50,HT29 colon,62.9 µM
same,TGI,HT29 colon,> 100 µM
same,GI50,HOP-92 NSCLC,34.6 µM
same,TGI,HOP-92 NSCLC,> 100 µM
same,GI50,HCC-2998 colon,35.6 µM
same,TGI,HCC-2998 colon,> 100 µM
same,GI50,MDA-MB-231 breast,23.2 µM
same,TGI,MDA-MB-231 breast,> 100 µM
same,GI50,NCI-H522 lung,35.7 µM
same,TGI,NCI-H522 lung,> 100 µM
same,GI50,UO-31 renal,34.9 µM
same,TGI,UO-31 renal,> 100 µM
same,GI50,SF-268 CNS,26.3 µM
same,TGI,SF-268 CNS,77.5 µM
same,GI50,NCI-H226 lung,25.6 µM
same,TGI,NCI-H226 lung,> 100 µM
same,GI50,SK-MEL-5 melanoma,18 µM
same,TGI,SK-MEL-5 melanoma,41.8 µM
same,GI50,SN12C renal,47.7 µM
same,TGI,SN12C renal,> 100 µM
same,GI50,RPMI-8226 leukemia,40.2 µM
same,TGI,RPMI-8226 leukemia,> 100 µM
same,GI50,UACC-62 melanoma,25.6 µM
same,TGI,UACC-62 melanoma,92.7 µM
same,GI50,MDA-MB-435,49.6 µM
same,TGI,MDA-MB-435,> 100 µM
same,GI50,CAKI-1 renal,22.9 µM
same,TGI,CAKI-1 renal,74.6 µM
same,GI50,A549 NSCLC,46.5 µM
same,TGI,A549 NSCLC,> 100 µM
same,GI50,OVCAR-3 ovarian,38.8 µM
same,TGI,OVCAR-3 ovarian,> 100 µM
same,GI50,OVCAR-4 ovarian,84.1 µM
same,TGI,OVCAR-4 ovarian,> 100 µM
same,GI50,K-562 leukemia,67.1 µM
same,TGI,K-562 leukemia,> 100 µM
same,GI50,T-47D breast,34.2 µM
same,TGI,T-47D breast,> 100 µM
same,GI50,TK-10 renal,58.3 µM
same,TGI,TK-10 renal,> 100 µM
same,GI50,HCT-116 colon,36.6 µM
same,TGI,HCT-116 colon,> 100 µM
same,GI50,NCI/ADR-RES ovarian,> 100 µM
same,TGI,NCI/ADR-RES ovarian,> 100 µM
same,GI50,MALME-3M melanoma,> 100 µM
same,TGI,MALME-3M melanoma,> 100 µM
same,GI50,LOX IMVI melanoma,57.1 µM
same,TGI,LOX IMVI melanoma,> 100 µM
same,GI50,DU-145 prostate,30.6 µM
same,TGI,DU-145 prostate,> 100 µM
same,GI50,SF-295 CNS,> 100 µM
same,TGI,SF-295 CNS,> 100 µM
same,GI50,HCT-15 colon,66.3 µM
same,TGI,HCT-15 colon,> 100 µM
same,GI50,SK-MEL-28 melanoma,64.6 µM
same,TGI,SK-MEL-28 melanoma,> 100 µM
same,GI50,SF-539 CNS,21.8 µM
same,TGI,SF-539 CNS,82.9 µM
same,GI50,NCI-H23 lung,> 100 µM
same,TGI,NCI-H23 lung,> 100 µM
same,GI50,MCF7 breast,26.5 µM
same,TGI,MCF7 breast,> 100 µM
same,GI50,ACHN renal,44.3 µM
same,TGI,ACHN renal,> 100 µM
same,GI50,786-0 renal,> 100 µM
same,TGI,786-0 renal,> 100 µM
same,GI50,RXF 393 renal,29 µM
same,TGI,RXF 393 renal,> 100 µM
same,GI50,PC-3 prostate,39 µM
same,TGI,PC-3 prostate,> 100 µM
same,GI50,U251 CNS,65.7 µM
same,TGI,U251 CNS,> 100 µM
same,GI50,IGROV1 ovarian,49 µM
same,TGI,IGROV1 ovarian,> 100 µM
same,GI50,NCI-H460 lung,31.9 µM
same,TGI,NCI-H460 lung,> 100 µM
same,GI50,HS 578T breast,10.7 µM
same,TGI,HS 578T breast,48.6 µM
same,GI50,HOP-62 NSCLC,18.6 µM
same,TGI,HOP-62 NSCLC,> 100 µM
same,GI50,COLO 205 colon,34.4 µM
same,TGI,COLO 205 colon,> 100 µM
same,GI50,SW-620 colon,39.5 µM
same,TGI,SW-620 colon,> 100 µM
same,GI50,SNB-75 CNS,> 100 µM
same,TGI,SNB-75 CNS,> 100 µM
same,GI50,EKVX NSCLC,18.9 µM
same,TGI,EKVX NSCLC,> 100 µM
same,GI50,SNB-19 CNS,46.8 µM
same,TGI,SNB-19 CNS,> 100 µM
same,GI50,M14 melanoma,> 100 µM
same,TGI,M14 melanoma,> 100 µM
same,GI50,KM12 colon,42 µM
same,TGI,KM12 colon,> 100 µM
same,GI50,MOLT-4 leukemia,> 100 µM
same,TGI,MOLT-4 leukemia,> 100 µM
